The term melting point denotes the temperature, or range, at which the solid turns liquid.

Turning to `COC(=O)CCc1ccc(NC(=O)C(COC2CCCCO2)NS(=O)(=O)c2ccc(Cl)cc2)cc1` (racemic), the melting point lay within 102 to 107 °C. For `CC(=O)N1Cc2cccc3[nH]cc(c23)C1` the value was 205 to 206 °C; for `OCc1csc(Nc2ccccc2)n1`, 115 to 118 °C. With `CN(c1ccc(Cl)c2cc(C(N)=O)[nH]c12)S(=O)(=O)c1cccs1` the figure was 252 to 254 °C; with `CC(O)c1ccc(-c2ccc(N)cc2)cc1` (stereo not drawn), 111 to 115 °C.

Compound `COC(=O)CCCCc1csc(N=C2SC[C@@H]3Cc4ccccc4CN23)n1` came in with a melting point of 92 °C.

As to `CCC(C(=O)N(CC)CC)n1cc(C)c(-c2ccccc2)n1` (stereo not drawn), the melting point lay within 80 to 82 °C. `CN(C)CCCN=C1CC(c2ccc(Cl)c(Cl)c2)Cc2c1c(=O)c1cc(Cl)ccc1n2O` (stereo not drawn) gave a melting point of 208 to 210 °C.

Turning to `O=C(CCc1nc(-c2ccc(Cl)cc2)co1)OCc1ccccc1`, the melting point lay within 66 to 67 °C.

As to `CCOC(=O)C1=Cc2cc(Br)ccc2NCC1`, the melting point lay in the range of 120 to 121 °C. Compound `CCCCCCCCCCCCCCOc1ccc(CC(=O)O)cc1Cl` registered a melting point of 68 to 69 °C. With `CCC(O)CNC(=O)c1nn(C2CCCCO2)cc1NC(=O)c1ccccn1` (stereo not drawn) the figure was 160 to 161 °C; with `CCCS(=O)(=O)Oc1ccc(CO)c(Oc2ncc(C(F)(F)F)cc2Cl)c1`, 68.5 to 69.5 °C.

For the compound `COC(=O)C1(O)CCCC(=O)C1N=Nc1ccccc1` (stereo not drawn), the melting point was 144 °C. Turning to `CCC[C@@H]1O[C@](/C=C/C2CC2)(C(F)(F)F)c2cc(Cl)ccc2NC1=O` (relative stereo), the melting point was 165 to 167 °C.

`CC(C)c1cc2c(cc1CCSCC(=O)O)OCO2` registered a melting point of 75.5 to 76 °C.

`COC(=O)CCC(=O)OC1CC(C)(C)N(O)C(C)(C)C1` had a melting point of 76 °C. The compound `OC1CSC(Oc2cncc(-c3c(F)cc(F)cc3F)c2)C(O)C1O` (stereo not drawn) returned a melting point of 228 °C. For `CCOC(=O)c1cn2c3c(c(-c4cc(C)nc(C)c4)c(F)c(F)c3c1=O)OC[C@@H]2C` the value was 295 to 297 °C; for `CC(=O)NCCCCCC(=O)Nc1ncccc1C(=O)c1ccc(Cl)cc1`, 117 to 119 °C. With `Cc1c(C(=O)c2cnn(C)c2OCc2ccccc2)ccc(S(C)(=O)=O)c1C1=NOCC1` the figure was 152 to 153 °C; with `CC(=O)N1CCc2oc3ncccc3c(=O)c2C1`, 182 to 184 °C; with `CSC1=NCCN1C(=O)c1cccnc1Cl`, 100 to 102 °C.

Compound `CCCCCCCCCCC1(CCCCCCCCCC)c2cc(Br)ccc2-c2ccc(-c3cccs3)cc21` showed a melting point of 36.9 to 38.4 °C. `O=C(Nc1ccc2[nH]c(CNCC3CCOCC3)cc2c1)c1ccc(OCC2CC2)cc1`: the melting point worked out at 160 °C.

In the case of `O=C(O)COc1cccc(CCc2nc(-c3ccccc3)c(-c3ccccc3)o2)c1`, the melting point was in the range of 153 to 154 °C. In the case of `CNC(=O)C(NC(=O)c1cn(C)nc1C(F)(F)F)C(COC(C)=O)c1ccccc1` (stereo not drawn), the melting point was 175 °C.

As for `COCCN1CCN(CCc2ccccc2Nc2ncnc3[nH]cc(C(=O)c4ccccc4)c23)CC1`, the melting point was 192 to 193 °C. With `C[C@H](NC(=O)[C@@H](CC(=O)O)NC(=O)c1ccccc1)C(=O)N1CCC[C@H]1C(=O)O` the figure was 161 to 163 °C; with `COc1ccc(C2Cc3ccccc3C2=O)cc1` (stereo not drawn), 83 to 85 °C. For `Cn1cnnc1NCCCOc1cccc(CN2CCCCC2)c1` the value was 118 to 119 °C; for `Cc1c(C(=O)c2ccccc2)[nH]c(CC(=O)O)c1C(=O)O`, 250 to 253 °C; for `CC1(C)CCCCc2ccc(C(=O)O)cc21`, 155 to 156 °C. For `CCNCC1CCN(c2cc3c(cc2F)c(=O)c(C(=O)O)cn3CC)C1` (stereo not drawn) the value was 248 to 252 °C; for `CCC1CC2=C(CCC(=O)C2)C2CCC3(C)C(=CCC3O)C12` (stereo not drawn), 102 to 105 °C. For the compound `O=S(=O)(Cl)c1nc2ccccn2n1`, the melting point was in the range of 116 to 118 °C.

`CCCCCCNC(=O)NC1CCCc2sccc21` (stereo not drawn) returned a melting point of 122 to 124 °C.

For the compound `CCCCCCc1nnc2n1-c1ccc(Cl)cc1C(c1ccccc1)=NC2`, the melting point fell in the range of 75 to 78 °C. The compound `CNc1cc(S(=O)(=O)c2ccccc2)cc(Br)n1` returned a melting point of 145 to 148 °C. In turn, `CCOC(=O)Nc1ccc2c3c(n(CCCN(C)C)c2c1)CCCCCC3` showed a melting point of 119 to 123 °C. With `Cc1nc2ccccn2c(=O)c1CCN1CCC(Nc2nc3cncnc3n2Cc2cnccn2)CC1` the figure was 180 °C; with `O=C(Cn1ncc2cc(/C=C/C(c3cc(Cl)c(F)c(Cl)c3)C(F)(F)F)ccc2c1=O)NCC(F)(F)F` (stereo not drawn), 172 to 175 °C. For `CC(=O)OCC1OC(n2c3ncccc3c3c4c(c5c6cccnc6[nH]c5c32)C(=O)N(CO)C4=O)C(OC(C)=O)C(OC(C)=O)C1OC(C)=O` (stereo not drawn) the value was over 300 °C. On to `CC(=O)Nc1c(C)nn(C)c1C`, for which the melting point fell in the range of 118 to 119 °C. With `C[C@@H](c1ccc(F)cc1)N1Cc2cncn2C(C)(c2ccc(C#N)cc2)C1=O` (stereo partly drawn) the figure was 78 to 82 °C. For `CN(C)c1nc(N(C)C)c2ccccc2n1` the value was 74 to 76 °C.

Compound `COc1ccc(C2C3=C(COC3=O)Nc3ccc4nn[nH]c4c32)c(F)c1` (stereo not drawn) came in with a melting point of 308 to 310 °C. The compound `CC(C)(C)c1ccc(CN2C(=O)N(c3ccccc3)CSC2=NCC(F)(F)F)cc1` had a melting point of 113 to 114 °C. With `CCCCCCCCCCCCCC=C1CC(CO)(COC(C)=O)OC1=O` (racemic), the melting point lay within 58 to 59 °C. For `CO[C@@]1(C)O[C@@H]2[C@H](OCc3ccccc3)OC[C@H](OC(=O)c3ccc([N+](=O)[O-])cc3)[C@H]2O[C@]1(C)OC` the value was 58 to 59 °C. For `CCOP(=O)(CCNC1CCN(S(=O)(=O)c2ccc(Nc3nccc(Nc4ccc(F)cc4)n3)cc2)CC1)OCC` the value was 195 °C; for `CC(C)(C)OC(=O)NCc1cc(-c2cccnc2)no1`, 67 to 69 °C; for `O=c1c(Cl)nsnc1Cl`, 81 to 82 °C.

The compound `O[C@H]1CC[C@H](CN2CCC(=C3c4ccc(F)cc4Sc4ccc(C(F)(F)F)cc43)CC2)CC1` returned a melting point of 144 to 146 °C. Regarding `COc1ccc(C(=Cc2cc(OC)c(OC)cc2[N+](=O)[O-])C(=O)N2CCCC2C(=O)O)cc1` (stereo not drawn), the melting point lay in the range of 120 to 122 °C.

`CCOc1ccccc1O[C@@H]1CN(Cc2ccccc2)C[C@H]1O` (relative stereo) had a melting point of 88.5 to 90 °C. `CCCCCCCNC(=O)Oc1ccc2c(c1)c(C)cn2NCCCc1ccncc1F` registered a melting point of 90 to 93 °C.

`CN1CCN(c2cccc3c2C[C@H](NC(=O)c2ccc(-n4cccc4)cc2)CC3)CC1` yielded a melting point of 245 to 247 °C. Take `Cc1nn(C)c2c1N=C(C(C)C)N1CC(C)N=C21` (stereo not drawn): the melting point is 96 to 97 °C.

Consider `Cc1ccc(S(=O)(=O)ON=C2CCCc3occ(C(=O)O)c32)cc1`, for which the melting point lay within 155 to 165 °C. Regarding `Cn1nnc2cccc(S(N)(=O)=O)c21`, the melting point fell in the range of 198 to 200 °C. `N#Cc1ccc(F)cc1-c1cc(-c2cnc3nc(C(F)(F)F)cnn23)ccc1F` gave a melting point of 200 to 201 °C. For `Cc1[nH]cnc1Cc1cn(C)c2ccccc2c1=O` the value was 110 to 113 °C.

For the origin of these results see a melting point compilation (Tetko et al.; mined from patent text by program, amines drawn as free bases though some values may be those of a salt).
